Data taken from ChEMBL document CHEMBL1201862, “PubChem BioAssay data set” (2004).
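Compound exposure: 48 hours, 5 concentrations, 96-well plates. The concentration for 50% growth inhibition is given as GI50.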 Activity calls are given as the source filed them. Rule as the data show it: active = GI50 up to about 1.1 µM and inactive = higher.

How the values were obtained:
Assay in all cases: NCI anticancer screen, dose series, 48 h
BT-549 = system: BT-549
HL-60 = system: HL-60
Hs-578T = system: Hs-578T
IGROV-1 = system: IGROV-1
K562 = system: K562
MDA-MB-435 = system: MDA-MB-435
MOLT-4 = system: MOLT-4
OVCAR-4 = system: OVCAR-4
SK-MEL-2 = system: SK-MEL-2
SNB-75 = system: SNB-75
786-0 = system: 786-0
A498 = system: A498
ACHN = system: ACHN
CAKI-1 = system: CAKI-1
CCRF-CEM = system: CCRF-CEM
COLO 205 = system: COLO 205
DU-145 = system: DU-145
EKVX = system: EKVX
HCC 2998 = system: HCC 2998
HCT-15 = system: HCT-15
HOP-62 = system: HOP-62
HOP-92 = system: HOP-92
HT-29 = system: HT-29
KM12 = system: KM12
LOX IMVI = system: LOX IMVI
M14 = system: M14
MCF7 = system: MCF7
MDA-MB-231 = system: MDA-MB-231
MDA-N = system: MDA-N
Malme-3M = system: Malme-3M
NCI-H226 = system: NCI-H226
NCI-H23 = system: NCI-H23
NCI-H460 = system: NCI-H460
NCI-H522 = system: NCI-H522
NCI/ADR-RES = system: NCI/ADR-RES
OVCAR-3 = system: OVCAR-3
OVCAR-5 = system: OVCAR-5
OVCAR-8 = system: OVCAR-8
PC-3 = system: PC-3
RPMI-8226 = system: RPMI-8226
RXF 393 = system: RXF 393
SF-268 = system: SF-268
SF-295 = system: SF-295
SF-539 = system: SF-539
SK-MEL-28 = system: SK-MEL-28
SK-MEL-5 = system: SK-MEL-5
SK-OV-3 = system: SK-OV-3
SN12C = system: SN12C
SNB-19 = system: SNB-19
SR = system: SR
SW-620 = system: SW-620
T47D = system: T47D
TK-10 = system: TK-10
U-251 = system: U-251
UACC-257 = system: UACC-257
UO-31 = system: UO-31

Measured: GI50

CN(C)CCSC1=Nc2ccc(Cl)cc2C(c2ccccc2Cl)=NC1
inactive: BT-549 42.3 µM | HL-60 30.3 µM | Hs-578T 21.4 µM | IGROV-1 92.5 µM | K562 34.6 µM | MDA-MB-435 17.9 µM | MOLT-4 31.4 µM | OVCAR-4 > 100 µM | SK-MEL-2 > 100 µM | SNB-75 30.1 µM

CC1OC2=N[C@@H]1C(=O)N[C@@H](C(C)C)C1=N[C@H](C(=O)N[C@@H](C(C)C)C3=N[C@H](C(=O)N[C@@H](C(C)C)C4=N[C@H](C(=O)N[C@H]2C(C)C)C(C)O4)C(C)O3)C(C)O1 (stereo not given in full)
> 10 µM: HCT-15
inactive: 786-0 > 10 µM | A498 > 10 µM | ACHN > 10 µM | CAKI-1 > 10 µM | CCRF-CEM > 10 µM | COLO 205 > 10 µM | DU-145 > 10 µM | EKVX > 10 µM | HCC 2998 > 10 µM | HL-60 > 10 µM | HOP-62 > 10 µM | HOP-92 > 10 µM | HT-29 > 10 µM | Hs-578T > 10 µM | IGROV-1 > 10 µM | K562 > 10 µM | KM12 > 10 µM | LOX IMVI > 10 µM | M14 > 10 µM | MCF7 > 10 µM | MDA-MB-231 > 10 µM | MDA-MB-435 > 10 µM | MDA-N > 10 µM | MOLT-4 > 10 µM | Malme-3M > 10 µM | NCI-H226 > 10 µM | NCI-H23 > 10 µM | NCI-H460 > 10 µM | NCI-H522 > 10 µM | NCI/ADR-RES > 10 µM | OVCAR-3 > 10 µM | OVCAR-4 > 10 µM | OVCAR-5 > 10 µM | OVCAR-8 > 10 µM | PC-3 > 10 µM | RPMI-8226 > 10 µM | RXF 393 > 10 µM | SF-268 > 10 µM | SF-295 > 10 µM | SF-539 > 10 µM | SK-MEL-28 > 10 µM | SK-MEL-2 > 10 µM | SK-MEL-5 > 10 µM | SK-OV-3 > 10 µM | SN12C > 10 µM | SNB-19 > 10 µM | SNB-75 > 10 µM | SR > 10 µM | SW-620 > 10 µM | T47D > 10 µM | TK-10 > 10 µM | U-251 > 10 µM | UACC-257 > 10 µM | UO-31 > 10 µM
